From publication PMC12208134, “Structure-activity relationships of 1,5-dihydro-2H-benzo[b][1,4]diazepine-2,4(3H)-diones as inhibitors of Trypanosoma cruzi” (RSC medicinal chemistry, 2025)
Converted amounts (≈) assume the structure as drawn. “And” between values parts separate entries of the source, which are not always exact repeats. Equal values may be shown once. Read-outs that look alike come from different tables or passages of the source.

What was measured:
host Vero cell = assay: Vero host cell toxicity in the intracellular T. cruzi assay; type: cell-based; parameters: key to Max Effect (Vero): % inhibition; 0% = DMSO control, 100% = 16 μM nifurtimox control
Procedure, shortened: (§1)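 Silvio X10/7 trypomastigotes infected Vero cells overnight at MOI10; washed infected cells were exposed to compounds 96 h at 37°C in MEM/1% FCS. Hoechst-stained imaging scored percent infected cells (potency) and host-cell number (Vero toxicity), normalised to 16 μM nifurtimox and DMSO controls; four-parameter fit.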

[1] = Human liver microsomal intrinsic clearance; type: in vitro ADME; details: human liver microsomes
T. cruzi epimastigotes = assay: T. cruzi oxygen consumption assay; type: cell-based; details: Trypanosoma cruzi, read-out: T. cruzi oxygen consumption pIC50 (converted)
Procedure: T. cruzi oxygen consumption assay
Oxygen consumption was measured using T. cruzi epimastigotes and the MitoXpress Xtra Oxygen Consumption Assay (Agilent) as previously reported. ^6

T. cruzi trypomastigotes = assay: T. cruzi trypomastigote assay; type: cell-based, Trypanosoma cruzi
Procedure: T. cruzi trypomastigote assay
Trypomastigote assays were carried out with T. cruzi Silvio X10/7 trypomastigotes using the protocol previously described. ^1

T. cruzi proteasome = T. cruzi proteasome (Trypanosoma cruzi, UniProt V5BU39)
Procedure: T. cruzi proteasome enzyme assay
The pIC50 of compound 1 was measured in a T. cruzi proteasome assay (N = 2 experimental replicates, each with n = 3 technical replicates) as previously described, using a recombinantly expressed Δβ1Δβ2 mutant proteasome (measuring chymotrypsin site activity only). ^4

Tc-HisRS = Tc-HisRS (Trypanosoma cruzi, UniProt Q4DA54); assay: biochemical
Sequence of Tc-HisRS (Q4DA54 entry or part of it): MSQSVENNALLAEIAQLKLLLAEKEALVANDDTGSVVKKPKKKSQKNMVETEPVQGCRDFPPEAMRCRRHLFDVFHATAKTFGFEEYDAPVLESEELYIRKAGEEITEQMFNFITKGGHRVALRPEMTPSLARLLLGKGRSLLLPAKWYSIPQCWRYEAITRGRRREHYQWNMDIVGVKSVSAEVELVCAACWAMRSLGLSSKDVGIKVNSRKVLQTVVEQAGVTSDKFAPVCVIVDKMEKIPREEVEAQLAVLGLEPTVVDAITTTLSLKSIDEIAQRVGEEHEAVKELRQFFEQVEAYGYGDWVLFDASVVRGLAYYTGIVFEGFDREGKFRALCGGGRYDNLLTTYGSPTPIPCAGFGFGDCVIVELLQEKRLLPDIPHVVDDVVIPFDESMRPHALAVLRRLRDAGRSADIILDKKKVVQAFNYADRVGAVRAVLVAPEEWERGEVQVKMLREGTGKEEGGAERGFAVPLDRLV
Procedure: TcHisRS assay wells contained TcHisRS assay buffer (30 mM Tris; pH 8, 140 mM NaCl, 40 mM MgCl2, 30 mM KCl, 0.01% (v/v) Brij and 1 mM DTT) plus 50 nM TcHisRS, 8 μM ATP, 5 μM L-histidine and 1 U/mL pyrophosphatase. Assays were run for 2 hours.

Tc-MetRS = Tc-MetRS (Trypanosoma cruzi, UniProt Q4D6H2); assay: T. cruzi aminoacyl tRNA synthetase enzyme assay (TcMetRS); type: biochemical
Sequence of Tc-MetRS (Q4D6H2 entry or part of it): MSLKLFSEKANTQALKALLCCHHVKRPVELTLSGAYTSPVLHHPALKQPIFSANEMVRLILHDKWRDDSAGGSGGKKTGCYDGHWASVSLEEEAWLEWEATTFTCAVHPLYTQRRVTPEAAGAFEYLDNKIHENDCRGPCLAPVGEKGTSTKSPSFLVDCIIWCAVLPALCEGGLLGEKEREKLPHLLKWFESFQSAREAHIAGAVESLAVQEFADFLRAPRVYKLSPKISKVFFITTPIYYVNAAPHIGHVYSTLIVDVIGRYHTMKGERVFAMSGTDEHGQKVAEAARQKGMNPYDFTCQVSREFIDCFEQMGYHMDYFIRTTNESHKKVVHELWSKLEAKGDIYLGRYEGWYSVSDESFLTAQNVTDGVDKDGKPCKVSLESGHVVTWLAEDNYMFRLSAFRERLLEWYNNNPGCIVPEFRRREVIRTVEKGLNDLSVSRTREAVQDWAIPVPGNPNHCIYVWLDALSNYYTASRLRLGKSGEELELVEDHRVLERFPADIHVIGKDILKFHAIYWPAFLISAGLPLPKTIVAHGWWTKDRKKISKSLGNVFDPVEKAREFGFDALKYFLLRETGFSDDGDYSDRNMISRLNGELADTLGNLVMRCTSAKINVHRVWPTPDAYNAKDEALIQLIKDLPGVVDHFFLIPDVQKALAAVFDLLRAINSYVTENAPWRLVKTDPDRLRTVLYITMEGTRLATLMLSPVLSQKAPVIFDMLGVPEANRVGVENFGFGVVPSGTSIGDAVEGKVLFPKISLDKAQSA
Procedure: T. cruzi aminoacyl tRNA synthetase enzyme assays
Assays were run for 2 hours.

Tc-CYP51 = Tc-CYP51 (Trypanosoma cruzi, UniProt Q7Z1V1); assay: T. cruzi sterol 14α-demethylase (CYP51) enzyme assay; type: biochemical
Sequence of Tc-CYP51 (Q7Z1V1 whole entry): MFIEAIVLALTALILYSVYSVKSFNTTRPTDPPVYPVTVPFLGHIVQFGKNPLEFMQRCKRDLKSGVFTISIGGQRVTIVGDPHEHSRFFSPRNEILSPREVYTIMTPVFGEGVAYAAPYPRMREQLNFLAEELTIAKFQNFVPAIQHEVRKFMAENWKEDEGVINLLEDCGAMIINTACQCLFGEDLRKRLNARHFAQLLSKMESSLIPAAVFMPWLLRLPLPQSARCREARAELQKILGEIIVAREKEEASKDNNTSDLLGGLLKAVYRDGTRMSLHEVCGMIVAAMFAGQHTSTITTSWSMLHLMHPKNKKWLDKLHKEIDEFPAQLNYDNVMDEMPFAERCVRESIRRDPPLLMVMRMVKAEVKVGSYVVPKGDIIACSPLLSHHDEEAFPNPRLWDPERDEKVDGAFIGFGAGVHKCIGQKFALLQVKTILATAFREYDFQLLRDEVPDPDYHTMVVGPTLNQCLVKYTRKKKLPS
Procedure: T. cruzi sterol 14α-demethylase (CYP51) enzyme assay
Potency against T. cruzi CYP51 was determined using a previously described fluorescence assay. Average potency for compound 1 was determined with three experimental replicates. Potencies in Fig.3 are from single experimental replicates. ^5

[2] = Mouse liver microsomal intrinsic clearance; type: in vitro ADME; details: mouse liver microsomes
[3] = system: intracellular T. cruzi amastigotes; assay: T. cruzi intracellular potency assay (high content imaging); type: cell-based, Trypanosoma cruzi; parameters: key to Max Effect (T. cruzi): % inhibition; 0% = DMSO control, 100% = 16 μM nifurtimox control
Procedure, shortened: as §1

[4] = system: intracellular T. cruzi amastigotes; assay: Rate-of-kill assay against intracellular amastigotes; type: cell-based, Trypanosoma cruzi
Procedure: T. cruzi intracellular potency and rate-of-kill assay (high content imaging) ^1
Silvio X10/7 T. cruzi trypomastigotes were incubated at 37°C 5% CO2 with 1.6×10^7 Vero cells overnight at MOI10 in MEM media supplemented with 10% foetal calf serum (FCS). Extracellular parasites were removed by aspirating cell culture supernatant, and washing Vero monolayer with 10 ml serum-free MEM three times. Vero cells were then harvested by trypsinization and dispensed at 2×10^3 per well (50 μl in MEM/ 1% FCS) into 384 well plates pre-stamped with compounds in DMSO using automated washer/ dispenser EL406 and liquid handling software (Biotek). Plates were then incubated at 37°C in 5% CO2 for 96 h. For rate-of-kill determination, plates were incubated for 24h, 48h, 72h and 96h.
Plates were subsequently fixed with 4% formaldehyde for 20 min, permeabilised and stained with 5 μgml^-1 Hoechst 33342/ 0.1% Triton/ PBS Thimerosal 20 min. […] Images were analysed with an algorithm generated in Columbus (PerkinElmer) to segment Vero cell nuclei, Vero cell cytoplasm and parasite nuclei/ kinetoplasts, reporting number of amastigotes per Vero cell, percent infected Vero cells and total number of Vero cells. Compound potencies against T. cruzi parasites were calculated in IDBS Activitybase using percent infected Vero cells and Vero toxicity curves generated using number of host cells. […]

[5] = Kinetic aqueous solubility by CAD; type: physicochemical; details: kinetic from dmso stock; kinetic, CAD; read-out: Aqueous solubility
[6] = ChromLogD pH7.4 (chromatographic hydrophobicity index), PFI, LLE
Source text: [23] Alongside PFI, LLE (ligand lipophilic efficiency, T. cruzi pIC50 - ChromLogDpH7.4) was also monitored to identify changes where the impact on potency was not driven by increasing lipophilicity.

Cc1ccc(NC(=O)NC2C(=O)Nc3ccccc3N(c3ccccc3)C2=O)cc1 (centres unmarked) [Compound 1, 1-(2,4-dioxo-1-phenyl-2,3,4,5-tetrahydro-1H-benzo[b][1,4]diazepin-3-yl)-3-(p-tolyl)urea]
EC50 (host Vero cell; Chlorocebus sabaeus, Vero, individual replicate): > 50.1 µM | IC50 (host Vero cell; Chlorocebus sabaeus, host Vero cell, read-out: Vero pIC50 (converted)): > 50.1 µM | Max Effect (Vero) (host Vero cell; individual replicate): 13 and 1.41 and 11 and 15 and 2.25 and -0.282 | HLM CLi [1]: <0.4 mL/min/g | IC50 (T. cruzi epimastigotes): > 50.1 µM | Emax (T. cruzi trypomastigotes; Trypanosoma cruzi, individual replicate, read-out: Tc-Trypo Max Effect): 77% | IC50 (T. cruzi trypomastigotes; Trypanosoma cruzi, read-out: T. cruzi trypomastigote pIC50 (converted)): 0.251 µM | Tc-Trypo Hill (T. cruzi trypomastigotes; individual replicate): 0.9 and 1.4 and 1.2 and 1.3 | Tc-Trypo Max Effect (T. cruzi trypomastigotes; individual replicate): 79 | Tc-Trypo pEC50 (T. cruzi trypomastigotes; individual replicate): 7.2 and 7.0 and 6.3 and 6.4 | Tc Proteasome Hill (T. cruzi proteasome; individual replicate): 1.1 and 0.9 | Tc Proteasome Max Effect (T. cruzi proteasome; individual replicate): 62 and 68 | Tc Proteasome pIC50 (T. cruzi proteasome; individual replicate): 4.0 and 4.2 | Tc-proteasome pIC50 (T. cruzi proteasome; Δβ1Δβ2 mutant proteasome, chymotrypsin site): 4.1 | IC50 (Tc-HisRS): > 100 µM | IC50 (Tc-MetRS): > 100 µM | IC50 (Tc-CYP51; average of three experimental replicates, read-out: Tc-CYP51 pIC50 (converted)): 15.8 µM | Tc CYP51 Hill (Tc-CYP51; individual replicate): 1.3 and 1.1 and 1.4 | Tc CYP51 Max Effect (Tc-CYP51; individual replicate): 83 and 84 | Emax (Tc-CYP51; individual replicate, read-out: Tc CYP51 Max Effect): 85% | IC50 (Tc-CYP51; individual replicate, read-out: Tc CYP51 pIC50 (converted)): 6.31 µM and 25.1 µM | fold more potent against the parasites than against Tc-CYP51 (Tc-CYP51; urea series): 10 fold | MLM CLi [2]: 0.8 mL/min/g | Emax ([3]; Trypanosoma cruzi, individual replicate, read-out: Max Effect (T. cruzi)): 84% | IC50 ([3]; Trypanosoma cruzi, intracellular amastigotes in Vero cells, 96 h, mean of N ≥ 3, read-out: T. cruzi pIC50 (converted)): 1 µM | Hill slope (T. cruzi) ([3]; individual replicate): 2.7 and 4.5 and 6.2 and 2.8 and 1.2 and 2.0 and 4.2 | Max Effect (T. cruzi) ([3]; individual replicate): 87 and 88 and 90 and 83 | pEC50 (T. cruzi) ([3]; individual replicate): 5.8 and 6.2 and 6.1 and 6.0 | Rate-of-Kill: cidal activity within [4]: Cidal activity within 96 hours ^f | solubility [5]: 35 µM (≈ 14 µg/mL) | PFI ([6]; ChromLogDpH7.4 + no. aromatic rings): 7.6 | chromatographic logD ([6]; pH 7.4): 4.6
